# Earlier results, collected in US4658014A, “Synthetic peptides with calcitonin-like activity” (priority 1985, dated 1987).
# Conditions: versus natural eel calcitonin
substance,measurement,value
"[Asu^1,7 ] eel calcitonin",activity relative to the naturally occuring hormone with the disulfide bond,comparable activity
